From BindingDB's records for doi:10.7270/Q2HX1B3F (The Scripps Research Institute Molecular Screening Center, 2007)

Each compound was assayed against Collagenase 3 (Homo sapiens, UniProt P45452) (assay: inhibition of collagenase 3 (MMP13) activity – biochemical, autofluorescent compounds, fluorescence, dose response (AID 769)).

Compound	IC50 [µM]
Cc1nn(-c2ccccc2)c2sc(-c3nnc(S)o3)cc12 [MLS000043319]	0.883
Oc1ccc(/N=C/c2ccc(-c3cccs3)s2)cc1 [4-[(5-thiophen-2-yl-2-thiophenyl)methylideneamino]phenol]	1.68
Fc1cccc2sc(Nc3nnc(-c4ccccc4)o3)nc12 [(4-fluoro-1,3-benzothiazol-2-yl)-(5-phenyl-1,3,4-oxadiazol-2-yl)amine]	> 39.8
COc1ccc(-c2ccc(-c3noc(-c4ccccc4C)n3)c(OC)n2)cc1 [3-(2-methoxy-6-(4-methoxyphenyl)pyridin-3-yl)-5-o-tolyl-1,2,4-oxadiazole]	3.97
O=S(=O)(Nc1ccc(-c2nc3cccnc3s2)cc1)c1cccs1	> 39.8
COc1cc(OC)cc(-c2nnc(Nc3nc4c(F)cccc4s3)o2)c1 [5-(3,5-dimethoxyphenyl)-N-(4-fluorobenzo[d]thiazol-2-yl)-1,3,4-oxadiazol-2-amine]	3.52
COc1cccc(-c2nnc(Nc3nc4c(F)cccc4s3)o2)c1 [(4-fluoro-1,3-benzothiazol-2-yl)-[5-(3-methoxyphenyl)-1,3,4-oxadiazol-2-yl]amine]	> 39.8
CCOC(=O)CSc1nc(-c2ccc3c(c2)OCO3)ccc1C#N [2-[[6-(1,3-benzodioxol-5-yl)-3-cyano-2-pyridinyl]thio]acetic acid ethyl ester]	> 39.8
